Assay results published in ChEMBL document CHEMBL3879901, “Substituted isoquinolin-1(2H)-ones, and methods of use thereof” (2012).

How the values were obtained:
[1] = biological target: PI3K p110 beta/p85 alpha (Homo sapiens, UniProt P42338); experiment: Inhibition of N-terminal His6-tagged recombinant full-length human p110beta/untagged recombinant full length p85alpha expressed in baculovirus infected Sf21 cells using phosphatidylinositol as substrate in presence of gamma-32P-ATP after 5 mins by thin layer chromatographic method
[2] = Antiproliferative activity against Balb/c mouse splenic B cells preincubated for 30 mins followed by LPS or F(ab')2 donkey anti-mouse IgM and recombinant mouse IL4 stimulation measured after 72 hrs by Alamar Blue reduction assay; type: functional, cell-based
[3] = biological target: PI3-kinase p110-alpha/p85-alpha (Homo sapiens, UniProt P42336); experiment: Inhibition of N-terminal His6-tagged recombinant full-length human p110alpha/untagged recombinant full length human p85alpha expressed in baculovirus infected Sf21 cells using phosphatidylinositol as substrate in presence of gamma-32P-ATP after 5 mins by thin layer chromatographic method
[4] = biological target: PI3-kinase p110-delta/p85-alpha (Homo sapiens, UniProt O00329); experiment: Inhibition of N-terminal His6-tagged recombinant full-length human p110delta/untagged recombinant full length p85alpha expressed in baculovirus infected Sf21 cells using phosphatidylinositol as substrate in presence of gamma-32P-ATP after 5 mins by thin layer chromatographic method
Sequence of PI3-kinase p110-delta/p85-alpha (P27986 whole entry): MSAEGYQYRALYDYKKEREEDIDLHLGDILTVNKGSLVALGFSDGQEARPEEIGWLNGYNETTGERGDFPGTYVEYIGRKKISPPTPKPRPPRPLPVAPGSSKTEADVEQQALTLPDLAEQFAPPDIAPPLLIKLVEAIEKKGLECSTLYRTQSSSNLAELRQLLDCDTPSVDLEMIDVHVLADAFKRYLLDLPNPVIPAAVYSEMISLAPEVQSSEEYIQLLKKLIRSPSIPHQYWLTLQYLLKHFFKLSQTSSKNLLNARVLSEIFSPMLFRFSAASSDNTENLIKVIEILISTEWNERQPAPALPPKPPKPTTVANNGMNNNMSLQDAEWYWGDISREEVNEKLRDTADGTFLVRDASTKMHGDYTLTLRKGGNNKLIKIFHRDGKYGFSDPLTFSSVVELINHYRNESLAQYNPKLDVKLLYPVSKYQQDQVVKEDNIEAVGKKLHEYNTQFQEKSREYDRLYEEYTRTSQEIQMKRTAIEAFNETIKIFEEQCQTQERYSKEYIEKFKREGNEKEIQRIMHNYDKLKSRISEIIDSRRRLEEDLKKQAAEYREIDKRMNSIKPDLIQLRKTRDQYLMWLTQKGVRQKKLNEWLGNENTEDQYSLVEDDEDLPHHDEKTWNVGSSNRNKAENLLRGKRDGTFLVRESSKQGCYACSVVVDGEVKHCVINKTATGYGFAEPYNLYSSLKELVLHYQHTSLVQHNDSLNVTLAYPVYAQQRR
Sequence of PI3-kinase p110-delta/p85-alpha (O00329 whole entry): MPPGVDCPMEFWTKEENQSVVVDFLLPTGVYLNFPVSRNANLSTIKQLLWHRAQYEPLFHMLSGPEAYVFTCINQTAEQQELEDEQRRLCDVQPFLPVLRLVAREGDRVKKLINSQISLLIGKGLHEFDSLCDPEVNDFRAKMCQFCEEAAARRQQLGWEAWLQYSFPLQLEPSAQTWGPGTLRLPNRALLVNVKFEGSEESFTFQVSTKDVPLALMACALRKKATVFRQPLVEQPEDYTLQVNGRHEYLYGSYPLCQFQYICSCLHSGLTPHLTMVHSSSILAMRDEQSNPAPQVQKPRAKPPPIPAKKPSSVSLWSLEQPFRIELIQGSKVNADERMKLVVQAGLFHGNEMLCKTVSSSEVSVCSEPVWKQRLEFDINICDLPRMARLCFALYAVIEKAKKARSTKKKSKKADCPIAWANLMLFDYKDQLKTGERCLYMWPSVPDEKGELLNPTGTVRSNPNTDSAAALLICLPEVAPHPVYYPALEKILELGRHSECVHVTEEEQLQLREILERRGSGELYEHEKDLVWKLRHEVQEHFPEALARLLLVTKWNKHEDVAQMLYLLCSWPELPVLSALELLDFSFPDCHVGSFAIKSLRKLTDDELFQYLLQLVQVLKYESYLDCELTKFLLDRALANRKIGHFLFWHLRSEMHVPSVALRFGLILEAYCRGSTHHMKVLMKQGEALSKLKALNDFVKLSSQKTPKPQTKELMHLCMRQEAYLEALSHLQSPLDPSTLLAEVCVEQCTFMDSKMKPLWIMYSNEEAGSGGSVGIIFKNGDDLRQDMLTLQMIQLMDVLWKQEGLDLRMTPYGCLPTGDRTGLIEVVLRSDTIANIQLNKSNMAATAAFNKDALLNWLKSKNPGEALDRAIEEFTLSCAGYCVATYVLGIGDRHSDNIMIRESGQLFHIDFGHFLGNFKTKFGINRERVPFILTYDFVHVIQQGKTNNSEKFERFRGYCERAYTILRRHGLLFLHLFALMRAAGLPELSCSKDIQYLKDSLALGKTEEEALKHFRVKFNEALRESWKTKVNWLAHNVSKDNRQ

Sequence of PI3-kinase p110-alpha/p85-alpha (P27986 whole entry): as the sequence (P27986 whole entry) above
Sequence of PI3-kinase p110-alpha/p85-alpha (P42336 whole entry): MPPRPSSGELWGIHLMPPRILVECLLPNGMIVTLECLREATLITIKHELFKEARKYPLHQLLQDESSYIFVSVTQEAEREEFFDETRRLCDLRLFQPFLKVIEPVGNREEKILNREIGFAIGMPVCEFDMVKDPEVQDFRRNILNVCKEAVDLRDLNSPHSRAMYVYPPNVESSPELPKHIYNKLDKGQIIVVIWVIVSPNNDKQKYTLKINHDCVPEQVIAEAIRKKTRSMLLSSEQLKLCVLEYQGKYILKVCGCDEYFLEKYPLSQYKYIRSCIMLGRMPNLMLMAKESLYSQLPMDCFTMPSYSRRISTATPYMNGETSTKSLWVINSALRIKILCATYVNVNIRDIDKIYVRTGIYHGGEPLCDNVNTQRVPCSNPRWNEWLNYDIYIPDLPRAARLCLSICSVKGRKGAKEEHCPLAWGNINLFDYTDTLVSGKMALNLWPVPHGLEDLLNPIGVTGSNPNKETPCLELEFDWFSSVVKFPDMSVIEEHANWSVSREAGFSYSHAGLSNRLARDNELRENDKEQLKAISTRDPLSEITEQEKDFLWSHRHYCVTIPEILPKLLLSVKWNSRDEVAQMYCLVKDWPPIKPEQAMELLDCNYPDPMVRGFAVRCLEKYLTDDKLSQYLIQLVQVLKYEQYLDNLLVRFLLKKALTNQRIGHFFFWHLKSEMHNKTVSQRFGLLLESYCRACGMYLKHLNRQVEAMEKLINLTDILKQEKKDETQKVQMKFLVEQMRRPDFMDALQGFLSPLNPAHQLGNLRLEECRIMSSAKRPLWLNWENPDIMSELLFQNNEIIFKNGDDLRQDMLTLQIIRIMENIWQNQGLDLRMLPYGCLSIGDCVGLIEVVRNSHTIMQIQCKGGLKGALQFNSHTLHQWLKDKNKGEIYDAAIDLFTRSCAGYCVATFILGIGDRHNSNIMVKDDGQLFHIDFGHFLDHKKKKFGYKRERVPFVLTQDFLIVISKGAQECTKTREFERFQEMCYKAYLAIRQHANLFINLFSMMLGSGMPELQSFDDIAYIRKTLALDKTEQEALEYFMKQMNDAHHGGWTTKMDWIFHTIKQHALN
Sequence of PI3K p110 beta/p85 alpha (P27986 whole entry): as the sequence (P27986 whole entry) above
Sequence of PI3K p110 beta/p85 alpha (P42338 whole entry): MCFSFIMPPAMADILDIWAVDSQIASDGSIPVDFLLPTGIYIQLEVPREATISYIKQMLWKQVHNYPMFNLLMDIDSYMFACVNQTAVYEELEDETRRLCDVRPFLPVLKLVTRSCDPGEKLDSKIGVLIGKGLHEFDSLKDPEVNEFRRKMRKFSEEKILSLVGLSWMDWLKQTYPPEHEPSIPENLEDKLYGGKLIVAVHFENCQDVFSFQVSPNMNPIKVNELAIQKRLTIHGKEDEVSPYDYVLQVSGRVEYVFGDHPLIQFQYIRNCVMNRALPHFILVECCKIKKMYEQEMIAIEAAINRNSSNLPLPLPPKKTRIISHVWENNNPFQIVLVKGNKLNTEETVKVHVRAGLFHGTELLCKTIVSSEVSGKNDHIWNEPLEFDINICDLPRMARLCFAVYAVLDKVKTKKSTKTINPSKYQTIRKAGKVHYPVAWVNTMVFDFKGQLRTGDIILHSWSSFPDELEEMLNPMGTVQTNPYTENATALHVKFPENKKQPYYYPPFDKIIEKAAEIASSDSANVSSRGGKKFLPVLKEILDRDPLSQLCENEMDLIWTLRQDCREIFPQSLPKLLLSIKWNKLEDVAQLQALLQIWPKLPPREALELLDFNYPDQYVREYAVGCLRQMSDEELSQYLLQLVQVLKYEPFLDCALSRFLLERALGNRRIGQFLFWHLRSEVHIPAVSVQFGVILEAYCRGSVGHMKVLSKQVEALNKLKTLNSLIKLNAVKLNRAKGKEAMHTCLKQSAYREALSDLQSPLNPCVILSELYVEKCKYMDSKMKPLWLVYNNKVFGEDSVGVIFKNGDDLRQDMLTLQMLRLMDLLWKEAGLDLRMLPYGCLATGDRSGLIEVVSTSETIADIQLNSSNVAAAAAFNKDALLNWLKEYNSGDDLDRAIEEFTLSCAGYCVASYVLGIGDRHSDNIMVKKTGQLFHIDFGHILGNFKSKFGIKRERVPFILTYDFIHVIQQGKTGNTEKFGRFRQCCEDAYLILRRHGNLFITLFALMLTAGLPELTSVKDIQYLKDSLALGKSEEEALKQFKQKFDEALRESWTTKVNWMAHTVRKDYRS

Row | SMILES | IC50 [1] | EC50 [2] | IC50 [3] | IC50 [4]
1 | COc1ccccc1-n1c(Cn2nc(-c3cccc(O)c3)c3c(N)ncnc32)cc2cccc(C)c2c1=O | < 10 µM | < 0.1 µM | > 10 µM | < 0.1 µM
2 | Cc1ccccc1-n1c(Cn2nc(-c3ccc4ncnc(N)c4c3)c3c(N)ncnc32)cc2cccc(C)c2c1=O | > 10 µM | < 1 µM | < 10 µM | < 0.1 µM
3 | COc1cc(-c2nn(Cc3cc4cccc(C)c4c(=O)n3-c3ccccc3C)c3ncnc(N)c23)ccc1Cl | > 10 µM | < 1 µM | > 10 µM | < 1 µM
4 | Cc1cccc2cc(Cn3nc(-c4cccc(O)c4)c4c(N)ncnc43)n(C(C)C)c(=O)c12 | < 1 µM | < 0.1 µM | > 10 µM | < 0.1 µM
5 | Cc1cccc2cc(Cn3nc(-c4cccc(O)c4)c4c(N)ncnc43)n(C3CCCCC3)c(=O)c12 | < 10 µM | < 1 µM | > 10 µM | < 0.1 µM
6 | COc1ccccc1-n1c(Cn2nc(-c3cc(O)cc(F)c3)c3c(N)ncnc32)cc2cccc(C)c2c1=O | < 10 µM | < 0.1 µM | < 10 µM | < 0.1 µM
7 | Cc1cccc2cc(Cn3nc(-c4cccc(O)c4)c4c(N)ncnc43)n(-c3ccccc3O)c(=O)c12 | < 10 µM | < 0.1 µM | > 10 µM | < 0.1 µM
8 | Cc1ccccc1-n1c(Cn2nc(-c3ccc(Cl)c(O)c3)c3c(N)ncnc32)cc2cccc(C)c2c1=O | < 10 µM | < 0.1 µM | > 10 µM | < 0.1 µM
9 | Nc1ncnc2c1c(-c1cc(O)cc(F)c1)nn2Cc1cc2cccc(Cl)c2c(=O)n1C1CC1 | < 0.1 µM | < 0.1 µM | < 100 µM | < 0.1 µM
10 | Cc1cccc2cc(Cn3nc(I)c4c(N)ncnc43)n(-c3ccccc3O)c(=O)c12 | > 10 µM | < 1 µM | > 10 µM | < 0.1 µM
11 | CC(=O)Nc1nc2ccc(-c3nn(Cc4cc5cccc(C)c5c(=O)n4C4CC4)c4ncnc(N)c34)cc2s1 | < 0.1 µM | < 0.1 µM | < 100 µM | < 0.1 µM
12 | CC(=O)Nc1nc2ccc(-c3nn(Cc4cc5cccc(C)c5c(=O)n4C(C)C)c4ncnc(N)c34)cc2s1 | < 10 µM | < 0.1 µM | < 100 µM | < 0.1 µM
13 | Cc1cccc2cc(Cn3nc(-c4cc(O)cc(F)c4)c4c(N)ncnc43)n(C3CCCCC3)c(=O)c12 | < 10 µM | < 1 µM | > 10 µM | < 0.1 µM
14 | Cc1ccccc1-n1c(Cn2nc(-c3ccc(O)cc3)c3c(N)ncnc32)cc2cccc(C)c2c1=O | > 10 µM | < 1 µM | > 10 µM | < 1 µM
15 | CC(=O)Nc1nc2ccc(-c3nn(Cc4cc5cccc(C)c5c(=O)n4C4CCC4)c4ncnc(N)c34)cc2s1 | < 1 µM | < 0.1 µM | < 100 µM | < 0.1 µM
16 | CCc1ccccc1-n1c(Cn2nc(-c3cccc(O)c3)c3c(N)ncnc32)cc2cccc(C)c2c1=O | > 10 µM | < 0.1 µM | > 10 µM | < 0.1 µM
17 | Cc1cccc2cc(Cn3nc(-c4cn[nH]c4)c4c(N)ncnc43)n(-c3ccccc3C(C)C)c(=O)c12 | < 1 µM | < 0.1 µM | < 10 µM | < 0.1 µM
18 | Cc1ccccc1-n1c(Cn2nc(-c3ccc4nc(N)ccc4c3)c3c(N)ncnc32)cc2cccc(C)c2c1=O | < 10 µM | < 0.1 µM | < 1 µM | < 0.1 µM
19 | Cc1cccc2cc(Cn3nc(I)c4c(N)ncnc43)n(C3CC3)c(=O)c12 | < 10 µM | < 1 µM | < 10 µM | < 0.1 µM

Row | SMILES | IC50 [1] | EC50 [2] | IC50 [3] | IC50 [4]
20 | Cc1cccc2cc(Cn3nc(-c4cc(O)cc(F)c4)c4c(N)ncnc43)n(C3CCC3)c(=O)c12 | < 10 µM | < 0.1 µM | < 10 µM | < 0.1 µM
21 | Cc1cccc2cc(Cn3nc(-c4ccc(Cl)c(O)c4)c4c(N)ncnc43)n(-c3ccccc3F)c(=O)c12 | > 10 µM | < 1 µM | > 10 µM | < 0.1 µM
22 | CC(=O)Nc1nc2ccc(-c3nn(Cc4cc5cccc(Cl)c5c(=O)n4C4CC4)c4ncnc(N)c34)cc2s1 | < 0.1 µM | < 0.1 µM | < 100 µM | < 0.1 µM
23 | Cc1cccc2cc(Cn3nc(C#C[C@@H](C)O)c4c(N)ncnc43)n(C3CCCCC3)c(=O)c12 | > 10 µM | < 10 µM | > 10 µM | < 0.1 µM
24 | Cc1cccc2cc(Cn3nc(-c4cc(O)cc(F)c4)c4c(N)ncnc43)n(C3CC3)c(=O)c12 | < 0.1 µM | < 0.1 µM | < 1 µM | < 0.1 µM
25 | Cc1cccc2cc(Cn3nc(-c4cccc(O)c4)c4c(N)ncnc43)n(C3CCC3)c(=O)c12 | < 10 µM | < 1 µM | > 10 µM | < 0.1 µM
26 | Cc1ccccc1-n1c(Cn2nc(C#C[C@H](C)O)c3c(N)ncnc32)cc2cccc(C)c2c1=O | < 10 µM | < 1 µM | > 10 µM | < 1 µM
27 | Cc1cccc2cc(Cn3nc(-c4cc(O)cc(F)c4)c4c(N)ncnc43)n(C3CCCC3)c(=O)c12 | < 10 µM | < 0.1 µM | < 10 µM | < 0.1 µM
28 | CCc1ccccc1-n1c(Cn2nc(-c3cc(O)cc(F)c3)c3c(N)ncnc32)cc2cccc(C)c2c1=O | < 1 µM | < 0.1 µM | < 10 µM | < 0.1 µM
29 | Cc1ccccc1-n1c(Cn2nc(-c3ccc(O)c(Cl)c3)c3c(N)ncnc32)cc2cccc(C)c2c1=O | < 10 µM | < 1 µM | > 10 µM | < 0.1 µM
30 | Cc1cccnc1-n1c(Cn2nc(-c3ccc(F)c(O)c3)c3c(N)ncnc32)cc2cccc(C)c2c1=O | > 10 µM | < 0.1 µM | > 10 µM | < 0.1 µM
31 | Cc1ccccc1-n1c(Cn2nc(-c3ccc4nc(N)sc4c3)c3c(N)ncnc32)cc2cccc(C)c2c1=O | < 10 µM | < 1 µM | < 1 µM | < 0.1 µM
32 | Cc1ccccc1-n1c(Cn2nc(-c3cc(O)cc(F)c3)c3c(N)nccc32)cc2cccc(C)c2c1=O | < 10 µM | < 0.1 µM | < 10 µM | < 0.1 µM
33 | CC(=O)Nc1nc2ccc(-c3nn(Cc4cc5cccc(C)c5c(=O)n4-c4ccccc4)c4ncnc(N)c34)cc2s1 | < 10 µM | < 0.1 µM | < 1 µM | < 0.1 µM
34 | Cc1ccccc1-n1c(Cn2nc(-c3cn[nH]c3)c3c(N)ncnc32)cc2cccc(C)c2c1=O | < 10 µM | < 0.1 µM | > 10 µM | < 0.1 µM
35 | Cc1cccnc1-n1c(Cn2nc(-c3ccc(Cl)c(O)c3)c3c(N)ncnc32)cc2cccc(C)c2c1=O | < 10 µM | < 0.1 µM | > 10 µM | < 0.1 µM
36 | Cc1cccc2cc(Cn3nc(-c4cccc(O)c4)c4c(N)ncnc43)n(-c3ccccc3)c(=O)c12 | > 10 µM | < 0.1 µM | > 10 µM | < 0.1 µM
37 | CC(=O)Nc1nc2ccc(-c3nn(Cc4cc5cccc(F)c5c(=O)n4C(C)C)c4ncnc(N)c34)cc2s1 | < 10 µM | < 0.1 µM | < 100 µM | < 0.1 µM
38 | Cc1ccccc1-n1c(Cn2nc(-c3ccn[nH]3)c3c(N)ncnc32)cc2cccc(C)c2c1=O | > 10 µM |  | > 10 µM | < 1 µM
